According to ChEMBL document CHEMBL6087487, “Discovery of a 2'-α-Fluoro-2'-β-C-(fluoromethyl) Purine Nucleotide Prodrug as a Potential Oral Anti-SARS-CoV-2 Agent” (J Med Chem, 2025):
Active and inactive are the calls of the source. The calls are words filed in the database; no cut-off is given here.

Columns and labels:
[1] = system: Severe acute respiratory syndrome coronavirus 2; test: Inhibition of SARS-CoV-2 central replication transcription complex of nsp12/nsp7/nsp8(2) using RNA template as substrate assessed as decrease in RdRp polymerization at 62.5 to 1000 uM by RNA extension assay; conditions: dose 62.5-1000 µM
[2] = system: Severe acute respiratory syndrome coronavirus 2; test: Inhibition of SARS-CoV-2 central replication transcription complex of nsp12/nsp7/nsp8(2) using RNA template as substrate assessed as decrease in RdRp polymerization at 3 mM pretreated for 10 mins followed by NTP addition measured after 20 mins by RNA extension assay relative to control; conditions: time 30.0 min
[3] = Toxicity in K18-hACE2 transgenic mouse infected with SARS-CoV-2 Omicron BA.5 assessed as animal survival at 20 mg/kg compound administered 2 hrs post-infection and continued till 7 days post-infection; type: organism-based; conditions: in vivo, 166 h
[4] = target: Nucleoprotein (Severe acute respiratory syndrome coronavirus 2) (UniProt P0DTC9); test: Inhibition of SARS-CoV-2 N protein by Western blot analysis; conditions: dose 1-250 nM
[5] = system: SARS-CoV-2; test: Antiviral activity against SARS-CoV-2 Omicron BA.5 infected in K18-hACE2 transgenic mouse assessed as protection against viral infection compound administered 2 hrs post-infection and continued till 7 days post-infection; type: functional, organism-based; conditions: Severe acute respiratory syndrome coronavirus 2, dose 20-60 mg/kg, time 166.0 hrs
[6] = Toxicity in K18-hACE2 transgenic mouse infected with SARS-CoV-2 Omicron BA.5 assessed as body weight change at 40 to 60 mg/kg compound administered 2 hrs post-infection and continued till 7 days post-infection; type: organism-based; conditions: in vivo, 166 h, dose 40-60 mg/kg
[7] = Acute toxicity in Sprague-Dawley rat assessed as damage in spleen at 500 to 2000 mg/kg, po measured for 14 days by H and E staining based analysis; type: organism-based; conditions: in vivo, 336 h, dose 500-2000 mg/kg, time 14 day
[8] = Toxicity in K18-hACE2 transgenic mouse infected with SARS-CoV-2 Omicron BA.5 assessed as animal survival at 40 to 60 mg/kg compound administered 2 hrs post-infection and continued till 7 days post-infection; type: organism-based; conditions: in vivo, 166 h, dose 40-60 mg/kg
[9] = Acute toxicity in Sprague-Dawley rat assessed as drug tolerance upto 2000 mg/kg, po measured for 14 days; type: organism-based; conditions: in vivo, 336 h, time 14 day
[10] = Acute toxicity in Sprague-Dawley rat assessed as damage in liver at 500 to 2000 mg/kg, po measured for 14 days by H and E staining based analysis; type: organism-based; conditions: in vivo, 336 h, dose 500-2000 mg/kg, time 14 day
[11] = Prodrug conversion in Sprague-Dawley rat assessed as Tmax of nucleoside triphosphate at 40 mg/kg, po measured after 0.5 to 24 hrs by LC-MS/MS analysis; type: ADME, organism-based; conditions: in vivo, time 0.5-24 hrs
[12] = Acute toxicity in Sprague-Dawley rat assessed as blood biochemical change at 500 to 2000 mg/kg, po measured for 14 days; type: organism-based; conditions: in vivo, 336 h, dose 500-2000 mg/kg, time 14 day
[13] = Acute toxicity in Sprague-Dawley rat assessed as animal mortality at 500 to 2000 mg/kg, po measured for 14 days; type: organism-based; conditions: in vivo, 336 h, dose 500-2000 mg/kg, time 14 day
[14] = Acute toxicity in Sprague-Dawley rat assessed as damage in heart at 500 to 2000 mg/kg, po measured for 14 days by H and E staining based analysis; type: organism-based; conditions: in vivo, 336 h, dose 500-2000 mg/kg, time 14 day
[15] = Acute toxicity in Sprague-Dawley rat assessed as hematological change at 500 to 2000 mg/kg, po measured for 14 days; type: organism-based; conditions: in vivo, 336 h, dose 500-2000 mg/kg, time 14 day
[16] = Acute toxicity in Sprague-Dawley rat assessed as body weight change at 500 to 2000 mg/kg, po measured for 14 days; type: organism-based; conditions: in vivo, 336 h, dose 500-2000 mg/kg, time 14 day
[17] = Prodrug conversion in Sprague-Dawley rat assessed as half life of nucleoside triphosphate at 40 mg/kg, po measured after 0.5 to 24 hrs by LC-MS/MS analysis; type: ADME, organism-based; conditions: in vivo, time 0.5-24 hrs
[18] = Prodrug conversion in Sprague-Dawley rat assessed as AUC (0 to infinity) of nucleoside triphosphate at 40 mg/kg, po measured after 0.5 to 24 hrs by LC-MS/MS analysis; type: ADME, organism-based; conditions: in vivo, time 0.5-24 hrs
[19] = Acute toxicity in Sprague-Dawley rat assessed as damage in kidney at 500 to 2000 mg/kg, po measured for 14 days by H and E staining based analysis; type: organism-based; conditions: in vivo, 336 h, dose 500-2000 mg/kg, time 14 day
[20] = system: Vero C1008; test: Cytotoxicity against African green monkey Vero E6 cells at 100 uM incubated for 72 hrs by CCK8 assay; type: toxicity, cell-based; conditions: chlorocebus sabaeus, vero c1008, 72 h
[21] = Cytotoxicity against HPAEpiC cells incubated for 72 hrs by CCK8 assay; type: toxicity, cell-based; conditions: human
[22] = Prodrug conversion in Sprague-Dawley rat assessed as AUClast of nucleoside triphosphate at 40 mg/kg, po measured after 0.5 to 24 hrs by LC-MS/MS analysis; type: ADME, organism-based; conditions: in vivo, time 0.5-24 hrs
[23] = Acute toxicity in Sprague-Dawley rat assessed as side effects at 500 to 2000 mg/kg, po measured for 14 days; type: organism-based; conditions: in vivo, 336 h, dose 500-2000 mg/kg, time 14 day
[24] = Prodrug conversion in Sprague-Dawley rat assessed as Cmax of nucleoside triphosphate at 40 mg/kg, po measured after 0.5 to 24 hrs by LC-MS/MS analysis; type: ADME, organism-based; conditions: in vivo, time 0.5-24 hrs
[25] = Acute toxicity in Sprague-Dawley rat assessed as damage in lung at 500 to 2000 mg/kg, po measured for 14 days by H and E staining based analysis; type: organism-based; conditions: in vivo, 336 h, dose 500-2000 mg/kg, time 14 day
[26] = Cytotoxicity against African green monkey Vero E6 cells incubated for 72 hrs by CCK8 assay; type: toxicity, cell-based, Vero C1008; conditions: chlorocebus sabaeus

With `CNc1nc(N)nc2c1ncn2[C@@H]1O[C@H](COP(=O)(O)OP(=O)(O)OP(=O)(O)OP(=O)(O)O)[C@@H](O)[C@]1(F)CF` the inhibition [1] was “inactive” and the inhibition [2] was 100%.
For `CNc1nc(N)nc2c1ncn2[C@@H]1O[C@H](CO[P@@](=O)(N[C@@H](C)C(=O)OC(C)C)Oc2ccccc2)[C@@H](O)[C@]1(F)CF.O=S(=O)(O)O`, the Survival [3] was > 50%, the inhibition [4] was “Dose-dependent-effect” and the Activity [5] was “Dose-dependent-effect”. The Activity [6] was “Non-toxic”, the Activity [7] was “Non-toxic” and the Survival [8] was 100%. For the same compound, the Activity [9] was “Non-toxic”, the Activity [10] was “Non-toxic” and the Tmax [11] was 2.67 h. The Activity [12] was “Non-toxic”, the Activity [13] was “Non-toxic” and the Activity [14] was “Non-toxic”. For the same compound, the Activity [15] was “Non-toxic”, the Activity [16] was “Non-toxic” and the t1/2 [17] was 45.7 h. The AUC [18] was 223 µg·h/g, the Activity [19] was “Non-toxic” and the Activity [20] was “Non-toxic”. The CC50 at 72 h [21] was > 200 µM, the AUClast [22] was 66.13 µg·h/g and the Activity [23] was “Non-toxic”. The Cmax [24] was 6.5 µg/g and the Activity [25] was “Non-toxic”.
`CCC(CC)COC(=O)[C@H](C)N[P@](=O)(OC[C@H]1O[C@@](C#N)(c2ccc3c(N)ncnn23)[C@H](O)[C@@H]1O)Oc1ccccc1` [REMDESIVIR] showed a CC50 at 72 h [26] of 42 µM.
